# Experimental data: US20120088841A1, “COMPOSITION AND A METHOD OF TREATING CNS DISORDERS AND HYPERPIGMENTATION” (priority 2010, published 2012)
# Values joined by “and” are separate entries in the source; they are usually repeats but may differ in a detail not shown here. Equal values may be shown once. Read-outs that look alike come from different tables or passages of the source. Marks after values point to notes of the source that are not given here.
# What was measured:
# [1] = target: Mushroom Tyrosinase enzyme; test: Tyrosinase inhibition; format: biochemical; settings: 40 units Mushroom Tyrosinase, 0.7 mM L-Tyrosine disodium, 37° C.
# Source text: Pigmentation is a multistep process critically dependent on the functional integrity of tyrosinase, the rate-limiting enzyme in melanin synthesis. Biosynthesis of melanin is initiated by the catalytic oxidation of tyrosine to 3, 4 dihydroxy phenylalanine (dopa) by tyrosinase. Subsequent reactions happen spontaneously eventually resulting in the synthesis of melanin. Under in vitro conditions, tyrosinase enzyme acts on L-Tyrosine forming a pink colored complex. This pink color intensity formed during the reaction is quenched in the presence of the inhibitor. The assay is performed in a 96 well clear microtitre plate. The compound hydroxychavicol, crude betel leaf extract and the reference standard in suitable vehicle (PBS or 0.2% DMSO) is pre incubated with 40 units of Mushroom Tyrosinase enzyme at 37° C. for 10 minutes. The reaction is initiated by adding 0.7 mM L-Tyrosine disodium and the absorbance is read after 10 minutes of incubation at 37° C. in FluostarOptima microplate reader at 492 nm. The dose dependent inhibitory activity of samples is calculated and the results are expressed as IC50 values using Graphpad prism software.
# [2] = test system: B16F1 mouse melanoma cells; test: Inhibition of α-MSH induced melanogenesis in B16F1 mouse melanoma cell line; format: cell-based; settings: B16-F1, 216 h, 0.6 nM MSH, 9 days treatment, read-out: Inhibition of MSH induced Melanin IC50
# Method: Melanin synthesis can be directly studied in live animal cells. B16F1 mouse melanoma cells were seeded in a 6 well microtiter plate at a seeding density of 5000 cells per well in 2 ml DMEM medium per well. After 24 hours of incubation in a CO2 incubator, melanin production is induced by 0.6 nM […] by replacing the medium with medium containing […]. The cells were then treated with the compound hydroxychavicol, crude betel leaf extract and the reference standard over a period of 9 days with renewal of […] containing medium and sample at regular intervals of 3 days. Control wells were maintained without sample treatment and only with the vehicle used for sample preparation. After the incubation period, the medium was removed and the cells were scraped and washed in PBS. Thereafter, melanin was extracted by 1N NaOH in boiling water bath for 5 minutes. The absorbance of the melanin extract was read at 405 nm in a microplate reader. The inhibitory effect of the samples is calculated based on the decrease of melanin formation. The dose dependent inhibitory activity of samples is calculated and the results are expressed as IC50 values using Graphpad prism software.
# TNF alpha = TNF alpha inhibition invitro (comparative data); format: cell-based; settings: read-out: TNF alpha inhibition (IC50 μg/ml)
# Source text: (§1) The results are as tabulated below in table 2.
# [3] = ORAC value (comparative data); settings: invitro; higher is better
# Source text: as §1
# ICV STZ treated rats = test: Single trial passive avoidance test after ICV injection of STZ; format: in vivo; settings: for initial latency: day 19, ICV STZ rats; for mean retention latency: day 20, ICV STZ rats (STZ Control 173±28 s)
# Method: (§2) The injection was repeated on day 3.
# Memory retention deficit was evaluated by a step through passive avoidance apparatus according to the method previously described by Mojard et al. (2007) on days 19th and 20th after 1st injection of STZ. On the acquisition trial, each rat was placed in the lighted chamber and after 60 s of habituation period, the guillotine door separating the lighted and dark chamber was opened, and the initial latency (IL) to enter the dark chamber was recorded. Immediately after the rat entered the dark chamber, the guillotine door was closed and an electric foot shock (75 V, 0.2 mA, 50 Hz) was delivered to the floor grids for 3 s. Five seconds later, the rat was removed from the dark chamber and returned to its home cage. Twenty-four hours later, the retention latency (RL) time was measured in the same way as in the acquisition trial, but foot shock was not delivered, and the latency time was recorded to a maximum of 600 s.
# [4] = test system: Reduced glutathione (GSH); test: Estimation of reduced glutathione in brain of ICV STZ rats; format: in vivo; settings: for GSH: brain homogenate, ICV STZ rats (STZ Control 223.21 ± 6.08)
# Method: as §2
# Reduced glutathione (GSH) in the brain was estimated according to the method described by Ellman (1959). 1 ml supernatant was precipitated with 1 ml of 4% sulfosalicylic acid and cold digested at 4° C. for 1 h. The samples were centrifuged at 1200×g for 15 min at 4° C. To 1 ml of this supernatant, 2.7 ml of phosphate buffer (0.1 M, pH 8) and 0.2 ml of 5,5′-dithiobis-(2-nitrobenzoic acid) (DTNB) were added. The yellow colour developed was read immediately at 412 nm using spectrophotometer. The results were calculated using the molar extinction coefficient of chromophore (1.36×104 M−1 cm−1) and expressed as a percentage of the control.
# CD3+ cell population = test: Flow cytometric evaluation of cell-surface marker CD3+ in peripheral blood lymphocytes; format: in vivo, rats
# Method: as §2
# (§3) CD3 monoclonal antibody that reacts with the CD3 differentiation antigen expressed on MHC class I T cytotoxic cells as well as MHC class II T helper cells, was used for the determination of activated T cell populations in the blood and CD19 monoclonal antibody that reacts with CD19 antigen expressed on B cells was used for the estimation of B cell population. Tubes were incubated in dark for 30 min at room temperature. Subsequently, 2 ml of 1×FACS lyses solution was added at room temperature with gentle mixing and these samples were then spinned at (300-400×g). The supernatant was aspirated and samples were given 3 washings of phosphate buffer saline (pH 7.4). The resulting stained cell pellet was resuspended in 500 μl of phosphate buffer saline and was run on a flow cytometer. Acquisition and the analysis were done directly on flow cytometer using Cell Quest Pro software (BD Biosciences) (Bani et al., 2005, 2006).
# CD19+ cell population = test: Flow cytometric evaluation of cell-surface marker CD19+ in peripheral blood lymphocytes; format: in vivo, rats
# Method: as §2, §3
# IFN-γ = test: Estimation of intracellular cytokine IFN-γ in CD3+ T cells; format: in vivo, rats
# Method: as §2
# Magnetic-bead Assisted Cell Sorting (MACS) separated the CD3+ T cells that were then permeabilised with 500 μl of FACS permeabilising solution (Becton Dickinson) for 10 min at room temperature. With this technique, specific cells that have antibody-coated micro beads are separated under a strong magnetic field magnetically from the whole cell suspension according to their cell-surface antigen. After centrifugation, cells were incubated with anti-rat IFN-γ-PE for 30 min in the dark at room temperature. After washing in PBS, cells were fixed in […] of 1% formaldehyde PBS. A total of 10,000-gated events were acquired in on a FACS BD LSR II flow cytometer (Bani et al., 2005, 2006) and analysis was done on flow cytometer using Cell Quest Pro software (BD Biosciences).
# Balb/C mice = settings: mouse, in vivo, po, 1000 mg/kg
# Method: Three female Balb/C mice, fasted 3-4 h prior to the test, were used for each step and observed individually after dosing at least once during the first 30 min, and periodically during the first 24 h, with special attention given during the first 4 h, and daily thereafter, for a total of 14 days.
# Malondialdehyde (MDA) = test: Measurement of lipid peroxidation (MDA) in brain of ICV STZ rats; settings: for MDA (LP): brain homogenate, ICV STZ rats (STZ Control 415.21 ± 10.07)
compound,measurement,setting,value
"O=C1O[C@H]([C@@H](O)CO)C(O)=C1O [Ascorbic acid, reference compound]",Tyrosinase inhibition IC50,[1],IC50—9.33 μg/ml
same,IC50,[2],25 µg/mL
C=CCc1ccc(O)c(OC)c1 [Eugenol],IC50,TNF alpha; invitro,114 µg/mL
same,ORAC value (μmol trolox equivalents/g),[3],13921 μmol trolox equivalents/g
"C=CCc1ccc(O)c(O)c1 [HC, Hydroxychavicol]",initial latency,ICV STZ treated rats; HC 0.5 mg/kg p.o.,12.21 ± 1.42 s
same,initial latency,ICV STZ treated rats; HC 1 mg/kg p.o.,17.33 ± 2.6 s
same,mean retention latency,ICV STZ treated rats; HC 1 mg/kg p.o.,291.87 ± 25.66 s
same,initial latency,ICV STZ treated rats; HC 2 mg/kg p.o.,15.92 ± 1.09 s
same,mean retention latency,ICV STZ treated rats; HC 2 mg/kg p.o.,301.09 ± 13.67 s
same,initial latency,ICV STZ treated rats; HC 4 mg/kg p.o.,18.21 ± 2.96 s
same,GSH percentage activity against STZ Control group (stimulation),[4]; HC 0.5 mg/kg p.o.,(61.03↑)* %
same,GSH,[4]; HC 0.5 mg/kg p.o.,359.44 ± 5.47 µg/g
same,GSH percentage activity against STZ Control group (stimulation),[4]; HC 1.0 mg/kg p.o.,(62.52↑)* %
same,GSH,[4]; HC 1.0 mg/kg p.o.,362.78 ± 6.24 µg/g
same,GSH percentage activity against STZ Control group (stimulation),[4]; HC 2.0 mg/kg p.o.,(66.52↑)* %
same,GSH,[4]; HC 2.0 mg/kg p.o.,371.69 ± 6.17 µg/g and 371.69 ± 6.117 µg/g
same,GSH percentage activity against STZ Control group (stimulation),[4]; HC 4.0 mg/kg p.o.,(67.04↑)* %
same,GSH,[4]; HC 4.0 mg/kg p.o.,372.87 ± 3.18 µg/g
same,mean percentage of CD3+ cells in the lymphocyte population,CD3+ cell population; HC 0.5 mg/kg p.o. (STZ Control 62.21±4.65%),51.19±1.78%
same,mean percentage of CD3+ cells in the lymphocyte population,CD3+ cell population; HC 2 mg/kg p.o. (STZ Control 62.21±4.65%),45.28±3.43%
same,mean percentage of CD3+ cells in the lymphocyte population,CD3+ cell population; HC 4 mg/kg p.o. (STZ Control 62.21±4.65%),44.49±4.55%
same,mean percentage of CD19+ cells in the lymphocyte population,CD19+ cell population; HC 0.5 mg/kg p.o. (STZ Control 27.08±2.77%),21.43±1.39%
same,mean percentage of CD19+ cells in the lymphocyte population,CD19+ cell population; HC 1 mg/kg p.o. (STZ Control 27.08±2.77%),17.08±2.09%
same,mean percentage of CD19+ cells in the lymphocyte population,CD19+ cell population; HC 2 mg/kg p.o. (STZ Control 27.08±2.77%),16.97±1.88%
same,mean percentage of CD19+ cells in the lymphocyte population,CD19+ cell population; HC 4 mg/kg p.o. (STZ Control 27.08±2.77%),16.01±1.07%
same,expression of IFN-γ in CD3+ T cells,IFN-γ; HC 2 mg/kg p.o. (STZ Control 18.18±0.97%),12.08±0.21%
same,expression of IFN-γ in CD3+ T cells,IFN-γ; HC 4 mg/kg p.o. (STZ Control 18.18±0.97%),11.91±0.87%
same,IC50,TNF alpha,88.7 µg/mL
same,IC50,[2],1.3 µg/mL
same,"untoward symptom or mortality, general behaviour",Balb/C mice,No untoward symptom or any mortality
same,MDA (LP) percentage activity against STZ Control group (suppression),Malondialdehyde (MDA); HC 0.5 mg/kg p.o.,(27.47↓)* %
same,MDA (LP),Malondialdehyde (MDA); HC 0.5 mg/kg p.o.,301.15 ± 6.34 nmol/mg
same,MDA (LP) percentage activity against STZ Control group (suppression),Malondialdehyde (MDA); HC 1.0 mg/kg p.o.,(39.26↓)* %
same,MDA (LP),Malondialdehyde (MDA); HC 1.0 mg/kg p.o.,252.18 ± 4.08 nmol/mg
same,MDA (LP) percentage activity against STZ Control group (suppression),Malondialdehyde (MDA); HC 2.0 mg/kg p.o.,(42.87↓)* %
same,MDA (LP),Malondialdehyde (MDA); HC 2.0 mg/kg p.o.,237.19 ± 3.44 nmol/mg
same,MDA (LP) percentage activity against STZ Control group (suppression),Malondialdehyde (MDA); HC 4.0 mg/kg p.o.,(46.85↓)* %
same,MDA (LP),Malondialdehyde (MDA); HC 4.0 mg/kg p.o.,220.68 ± 4.32 nmol/mg
CC=Cc1ccc(O)c(OC)c1 [Isoeugenol],IC50,TNF alpha; invitro,515 µg/mL
same,ORAC value (μmol trolox equivalents/g),[3],15248 μmol trolox equivalents/g
